{
  "source": "patent US20110046147A1",
  "about": "“17BETA-HYDROXYSTEROID DEHYDROGENASE TYPE 1 INHIBITORS FOR THE TREATMENT OF HORMONE-RELATED DISEASES” (UNIVERSITAT DES SAARLANDES, priority 2007, published 2011)",
  "key": {"[1]": {"molecular_target": "T1, 17β-HSD1 (Homo sapiens, UniProt P14061)", "T1 construct": "In both cases, human placenta served as the enzyme source; from tissue; host or cells: human placenta", "T1 sequence (P14061 1-328)": "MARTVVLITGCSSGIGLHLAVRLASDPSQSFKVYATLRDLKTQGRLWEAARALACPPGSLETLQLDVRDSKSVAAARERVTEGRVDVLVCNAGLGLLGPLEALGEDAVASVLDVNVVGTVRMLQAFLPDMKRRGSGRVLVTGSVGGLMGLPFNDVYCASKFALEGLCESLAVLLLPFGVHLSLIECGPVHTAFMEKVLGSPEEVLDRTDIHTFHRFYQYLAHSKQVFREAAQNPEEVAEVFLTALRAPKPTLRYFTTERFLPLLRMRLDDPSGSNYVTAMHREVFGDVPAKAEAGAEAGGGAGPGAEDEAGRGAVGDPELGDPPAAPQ", "assay": "Inhibition of 17β-HSD1 (estrone to estradiol, radio-HPLC)", "assay_type": "biochemical", "settings": "for IC50: human placenta enzyme, 500 nM estrone, NADH 500 μM", "procedure": "In the 17β-HSD1 test, NADH is employed as a cosubstrate at a final concentration of 500 μM in order to avoid the product inhibition occurring with NADPH. The enzyme preparation is diluted with test buffer to such an extent that the control conversion is 10 to maximally 20% (about 1:650). As the substrate, estrone in a final concentration of 500 nM is used, of which 3 nM is tritiated. 2,4,6,7-[^3H]estrone is purchased from Perkin-Elmer, Boston. The inhibitor is added as a solution in DMSO (control: pure DMSO without inhibitor; the final concentration of DMSO in the assay is 1% in all cases).\n(§1) After the reaction, the substrate and product are extracted by partitioning with ether, separated by chromatography (HPLC) and quantified by means of radiodetection."}, "[2]": {"system": "estrogen receptor", "settings": "cited from earlier work"}, "[3]": {"molecular_target": "T2, 17β-HSD2 (Homo sapiens, UniProt P37059)", "T2 construct": "from tissue; host or cells: human placenta, microsome fraction", "T2 sequence (P37059 1-387)": "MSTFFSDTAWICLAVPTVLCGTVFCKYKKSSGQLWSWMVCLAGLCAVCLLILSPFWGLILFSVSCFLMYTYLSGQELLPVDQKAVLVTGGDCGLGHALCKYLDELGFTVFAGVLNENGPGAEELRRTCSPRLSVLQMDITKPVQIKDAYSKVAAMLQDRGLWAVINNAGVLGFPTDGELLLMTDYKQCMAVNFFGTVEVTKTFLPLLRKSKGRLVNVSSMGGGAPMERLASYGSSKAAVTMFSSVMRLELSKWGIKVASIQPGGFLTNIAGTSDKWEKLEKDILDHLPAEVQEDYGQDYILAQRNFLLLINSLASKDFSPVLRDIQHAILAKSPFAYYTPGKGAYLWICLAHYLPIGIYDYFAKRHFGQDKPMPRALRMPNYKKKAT", "assay": "Inhibition of 17β-HSD2 (estradiol to estrone, radio-HPLC)", "assay_type": "biochemical", "settings": "human placenta microsome fraction, 500 nM estradiol, NAD+ 1500 μM", "procedure": "Determination of the inhibitory activity of the potential inhibitors: Inhibition of 17β-HSD1 and 17β-HSD2: In both cases, human placenta served as the enzyme source (Lin, S.-X. et al., J. Biol. Chem., 267: 16182-16187 (1992)).\nIn the 17β-HSD2 test, the natural cosubstrate NAD^+ is employed at a final concentration of 1500 μM. The microsome fraction is diluted in test buffer, so that a control conversion of 20 to 30% results (about 1:350). As the substrate, estradiol in a final concentration of 500 nM is used, of which 3 nM is tritiated. 2,4,6,7-[^3H]estradiol is also purchased from Perkin-Elmer, Boston. The inhibitor is added as a solution in DMSO (control: pure DMSO without inhibitor; the final concentration of DMSO in the assay is […]). After the addition of the substrate, incubation is performed at 37° C. for 20 minutes. The reaction is quenched by the addition of HgCl2 (final concentration of HgCl2: 0.166 mM).\nas §1"}, "[4]": {"molecular_target": "T3, CYP1A2 (Homo sapiens, UniProt P05177)", "T3 construct": "purchased Becton Dickinson GmbH (Heidelberg)", "T3 sequence (P05177 1-516)": "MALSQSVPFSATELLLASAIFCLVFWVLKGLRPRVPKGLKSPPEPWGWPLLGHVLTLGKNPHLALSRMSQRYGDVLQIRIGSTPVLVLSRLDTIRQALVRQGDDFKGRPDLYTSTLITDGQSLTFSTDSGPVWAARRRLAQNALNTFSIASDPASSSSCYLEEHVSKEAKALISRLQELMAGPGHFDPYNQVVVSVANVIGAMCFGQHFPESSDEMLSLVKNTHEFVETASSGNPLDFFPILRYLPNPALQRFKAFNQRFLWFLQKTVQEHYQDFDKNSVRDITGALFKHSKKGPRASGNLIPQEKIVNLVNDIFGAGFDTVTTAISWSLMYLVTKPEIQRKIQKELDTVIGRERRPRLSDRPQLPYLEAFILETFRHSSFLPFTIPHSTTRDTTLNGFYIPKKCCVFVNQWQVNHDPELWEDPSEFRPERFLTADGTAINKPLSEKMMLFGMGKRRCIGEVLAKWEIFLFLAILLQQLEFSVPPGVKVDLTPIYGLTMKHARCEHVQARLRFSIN", "assay": "Inhibition of hepatic CYP enzymes: CYP1A2", "assay_type": "biochemical", "settings": "read-out: CYP1A2 IC50 (mean ± SD)", "source_text": "(§2) Drug interactions (inhibition of hepatic CYP enzymes): The inhibition of six human hepatic cytochrome P450 enzymes by selected compounds was examined by means of the kit supplied by Becton Dickinson GmbH (Heidelberg)."}, "[5]": {"molecular_target": "T4, CYP2B6 (Homo sapiens, UniProt P20813)", "T4 construct": "purchased Becton Dickinson GmbH (Heidelberg)", "T4 sequence (P20813 1-491)": "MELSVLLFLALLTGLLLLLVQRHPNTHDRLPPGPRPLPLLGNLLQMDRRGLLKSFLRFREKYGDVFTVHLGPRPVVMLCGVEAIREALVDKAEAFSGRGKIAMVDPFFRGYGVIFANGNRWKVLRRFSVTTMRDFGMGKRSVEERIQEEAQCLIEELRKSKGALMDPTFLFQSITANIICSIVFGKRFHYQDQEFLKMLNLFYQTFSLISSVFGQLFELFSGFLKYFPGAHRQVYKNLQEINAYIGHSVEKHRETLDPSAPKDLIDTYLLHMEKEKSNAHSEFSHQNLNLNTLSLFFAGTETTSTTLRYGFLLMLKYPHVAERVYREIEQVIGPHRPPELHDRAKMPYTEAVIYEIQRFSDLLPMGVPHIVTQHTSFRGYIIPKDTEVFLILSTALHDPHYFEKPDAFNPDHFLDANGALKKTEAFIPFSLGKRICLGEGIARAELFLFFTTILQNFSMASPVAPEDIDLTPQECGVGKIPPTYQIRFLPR", "assay": "Inhibition of hepatic CYP enzymes: CYP2B6", "assay_type": "biochemical", "settings": "read-out: CYP2B6 IC50 (mean ± SD)", "source_text": "as §2"}, "[6]": {"molecular_target": "T5, CYP2C19 (Homo sapiens, UniProt P33261)", "T5 construct": "purchased Becton Dickinson GmbH (Heidelberg)", "T5 sequence (P33261 whole entry)": "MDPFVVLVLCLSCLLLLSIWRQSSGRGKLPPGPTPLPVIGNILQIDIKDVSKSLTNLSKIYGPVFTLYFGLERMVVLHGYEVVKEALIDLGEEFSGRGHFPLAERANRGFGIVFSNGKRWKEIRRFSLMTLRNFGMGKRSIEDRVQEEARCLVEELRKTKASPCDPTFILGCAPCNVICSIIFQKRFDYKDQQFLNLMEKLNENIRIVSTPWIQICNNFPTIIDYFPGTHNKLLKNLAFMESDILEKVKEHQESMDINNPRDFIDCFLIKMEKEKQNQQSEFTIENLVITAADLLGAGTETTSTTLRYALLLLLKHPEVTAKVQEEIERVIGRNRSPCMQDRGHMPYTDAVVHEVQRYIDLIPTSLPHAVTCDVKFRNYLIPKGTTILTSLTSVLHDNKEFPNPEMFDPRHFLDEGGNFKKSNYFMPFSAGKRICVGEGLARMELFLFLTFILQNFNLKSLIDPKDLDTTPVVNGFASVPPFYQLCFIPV", "assay": "Inhibition of hepatic CYP enzymes: CYP2C19", "assay_type": "biochemical", "settings": "read-out: CYP2C19 IC50 (mean ± SD)", "source_text": "as §2"}, "[7]": {"molecular_target": "T6, CYP2D6 (Homo sapiens, UniProt P10635)", "T6 construct": "purchased Becton Dickinson GmbH (Heidelberg)", "T6 sequence (P10635 whole entry)": "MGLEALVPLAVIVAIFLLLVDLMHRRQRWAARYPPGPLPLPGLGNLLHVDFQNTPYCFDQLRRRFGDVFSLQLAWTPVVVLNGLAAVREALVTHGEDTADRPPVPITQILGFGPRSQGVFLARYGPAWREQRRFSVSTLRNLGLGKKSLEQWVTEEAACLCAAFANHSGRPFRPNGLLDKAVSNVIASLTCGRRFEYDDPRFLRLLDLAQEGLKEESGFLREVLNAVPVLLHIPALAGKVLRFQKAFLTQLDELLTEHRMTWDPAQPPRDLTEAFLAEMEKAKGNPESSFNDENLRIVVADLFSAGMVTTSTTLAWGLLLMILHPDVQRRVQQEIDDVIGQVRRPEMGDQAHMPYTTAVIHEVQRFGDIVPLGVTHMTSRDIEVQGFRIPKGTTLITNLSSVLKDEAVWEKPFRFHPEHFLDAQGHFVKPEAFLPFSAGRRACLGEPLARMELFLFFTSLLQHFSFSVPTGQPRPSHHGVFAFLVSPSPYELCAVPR", "assay": "Inhibition of hepatic CYP enzymes: CYP2D6", "assay_type": "biochemical", "settings": "read-out: CYP2D6 IC50 (mean ± SD)", "source_text": "as §2"}, "[8]": {"molecular_target": "T7, estrogen receptor α (Homo sapiens, UniProt P03372)", "T7 sequence (P03372 1-595)": "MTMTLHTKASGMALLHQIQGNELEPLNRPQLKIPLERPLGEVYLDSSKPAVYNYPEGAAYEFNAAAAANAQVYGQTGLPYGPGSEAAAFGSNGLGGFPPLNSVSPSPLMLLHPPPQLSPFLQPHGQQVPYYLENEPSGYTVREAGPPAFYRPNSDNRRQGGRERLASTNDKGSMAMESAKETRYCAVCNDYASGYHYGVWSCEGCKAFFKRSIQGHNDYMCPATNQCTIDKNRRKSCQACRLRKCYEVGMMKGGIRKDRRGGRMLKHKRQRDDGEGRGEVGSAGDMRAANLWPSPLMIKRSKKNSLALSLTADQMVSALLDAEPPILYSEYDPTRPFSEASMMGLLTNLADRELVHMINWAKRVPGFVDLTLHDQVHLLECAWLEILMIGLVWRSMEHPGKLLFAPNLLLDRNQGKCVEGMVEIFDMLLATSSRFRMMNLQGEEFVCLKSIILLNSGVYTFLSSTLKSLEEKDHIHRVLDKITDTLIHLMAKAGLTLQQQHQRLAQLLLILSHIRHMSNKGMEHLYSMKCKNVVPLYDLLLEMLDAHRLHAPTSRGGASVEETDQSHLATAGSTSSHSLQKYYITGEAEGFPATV", "assay": "Affinity for the estrogen receptor α (RBA)", "assay_type": "binding", "settings": "data not stated", "procedure": "Slight changes were made: The respective inhibitor was incubated at RT for 2 h with shaking.\nThe receptor affinities are established as RBA (relative binding affinity) values. The RBA value of the reference estradiol is set to 100%."}},
  "data": [
    {"molecule": "Oc1ccc(-c2csc(-c3ccc(O)cc3)n2)cc1", "note": "[Compound 25, 4,4′-(1,3-Thiazole-2,4-diyl)diphenol]", "values": [
      {"measurement": "inhibition of 17β-HSD1 (in words)", "setting": "[1]", "result": "no activity"},
      {"measurement": "Inhibition of 17β-HSD1, IC50 (nM)", "setting": "[1]; Table 6, isomeric bis(hydroxyphenyl)-1,3-thiazoles", "result": "no inhibition"},
      {"measurement": "RBA (%) (Katzenellenbogen patent)", "setting": "[2]", "result": 0.018, "unit": "%"}
    ]},
    {"molecule": "Oc1cccc(-c2cnc(-c3cccc(O)c3)s2)c1", "note": "[Compound 22, 3,3′-(1,3-thiazole-2,5-diyl)diphenol]", "values": [
      {"measurement": "IC50", "setting": "[1]", "result": 0.28, "unit": "µM"},
      {"measurement": "IC50", "setting": "[3]", "result": 2.5, "unit": "µM"},
      {"measurement": "IC50", "setting": "[4]", "result": "4.92 ± 0.09", "unit": "µM"},
      {"measurement": "IC50", "setting": "[5]", "result": "14.2 ± 0.44", "unit": "µM"},
      {"measurement": "IC50", "setting": "[6]", "result": "4.57 ± 0.05", "unit": "µM"},
      {"measurement": "IC50", "setting": "[7]", "result": "7.76 ± 0.03", "unit": "µM"}
    ]},
    {"molecule": "Oc1cccc(-c2csc(-c3cccc(O)c3)n2)c1", "note": "[Compound 26, 3,3′-(1,3-Thiazole-2,4-diyl)diphenol]", "values": [
      {"measurement": "IC50", "setting": "[1]", "result": 0.41, "unit": "µM"},
      {"measurement": "Selectivity IC50 (17β-HSD2)/IC50 (17β-HSD1)", "setting": "[1]; ratio of IC50 values", "result": 5.4},
      {"measurement": "IC50", "setting": "[3]", "result": 2.22, "unit": "µM"},
      {"measurement": "affinity for the estrogen receptor (in words)", "setting": "[8]", "result": "negligible"}
    ]}
  ]
}
